Data on 37 compounds can be found in patent publication US20240150377A1, “MODULATORS OF CYSTIC FIBROSIS TRANSMEMBRANE CONDUCTANCE REGULATOR” (VERTEX PHARMACEUTICALS INCORPORATED, priority 2020, published 2024).

This assay has as its target T1, CFTR (Homo sapiens, UniProt P13569, DEL508-508).
T1 construct: endogenous in cells; host or cells: primary human bronchial epithelial cells from CF subjects (F508del/MF-HBE), differentiated at air-liquid interface
The assay can be described thus: HBE assay: Ussing chamber assay of CFTR-mediated short-circuit currents. It counts as cell-based. The conditions noted are these: for pEC50: read-out: HBE EC50. Summed up:
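CFTR-mediated Isc (μA/cm²) equals the peak response to apical 20 μM forskolin minus the residual after a 20 μM each BPO/GlyH-101/CFTR inhibitor 172 cocktail, recorded in Ussing chambers at Vhold 0 mV, 37 °C, pH 7.4, with 30 μM apical amiloride. Cells were F508del/MF HBE cultures preincubated 18-24 h with corrector (concentration range or 10 μM) plus 1 μM ivacaftor in 20% human serum.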

Where [1] appears, read: Table 12, read-out: HBE Max Activity (%).
[2] abbreviates: Table 10, read-out: HBE Max activity (%).
Where [3] appears, read: Table 11, read-out: HBE Max Activity (%).
[4] abbreviates: Table 13, read-out: HBE Max Activity (%).
[5] abbreviates: Table 13, at 10 μM, read-out: HBE Activity at 10 μM (%).
Setting [6] is: HBE assay, read-out: HBE Max activity (%).

pEC50: −log10 of the molar value. Like-named read-outs stand apart in the source and are kept apart here.

T1 sequence (P13569 with tags, fused parts or gaps DEL508-508): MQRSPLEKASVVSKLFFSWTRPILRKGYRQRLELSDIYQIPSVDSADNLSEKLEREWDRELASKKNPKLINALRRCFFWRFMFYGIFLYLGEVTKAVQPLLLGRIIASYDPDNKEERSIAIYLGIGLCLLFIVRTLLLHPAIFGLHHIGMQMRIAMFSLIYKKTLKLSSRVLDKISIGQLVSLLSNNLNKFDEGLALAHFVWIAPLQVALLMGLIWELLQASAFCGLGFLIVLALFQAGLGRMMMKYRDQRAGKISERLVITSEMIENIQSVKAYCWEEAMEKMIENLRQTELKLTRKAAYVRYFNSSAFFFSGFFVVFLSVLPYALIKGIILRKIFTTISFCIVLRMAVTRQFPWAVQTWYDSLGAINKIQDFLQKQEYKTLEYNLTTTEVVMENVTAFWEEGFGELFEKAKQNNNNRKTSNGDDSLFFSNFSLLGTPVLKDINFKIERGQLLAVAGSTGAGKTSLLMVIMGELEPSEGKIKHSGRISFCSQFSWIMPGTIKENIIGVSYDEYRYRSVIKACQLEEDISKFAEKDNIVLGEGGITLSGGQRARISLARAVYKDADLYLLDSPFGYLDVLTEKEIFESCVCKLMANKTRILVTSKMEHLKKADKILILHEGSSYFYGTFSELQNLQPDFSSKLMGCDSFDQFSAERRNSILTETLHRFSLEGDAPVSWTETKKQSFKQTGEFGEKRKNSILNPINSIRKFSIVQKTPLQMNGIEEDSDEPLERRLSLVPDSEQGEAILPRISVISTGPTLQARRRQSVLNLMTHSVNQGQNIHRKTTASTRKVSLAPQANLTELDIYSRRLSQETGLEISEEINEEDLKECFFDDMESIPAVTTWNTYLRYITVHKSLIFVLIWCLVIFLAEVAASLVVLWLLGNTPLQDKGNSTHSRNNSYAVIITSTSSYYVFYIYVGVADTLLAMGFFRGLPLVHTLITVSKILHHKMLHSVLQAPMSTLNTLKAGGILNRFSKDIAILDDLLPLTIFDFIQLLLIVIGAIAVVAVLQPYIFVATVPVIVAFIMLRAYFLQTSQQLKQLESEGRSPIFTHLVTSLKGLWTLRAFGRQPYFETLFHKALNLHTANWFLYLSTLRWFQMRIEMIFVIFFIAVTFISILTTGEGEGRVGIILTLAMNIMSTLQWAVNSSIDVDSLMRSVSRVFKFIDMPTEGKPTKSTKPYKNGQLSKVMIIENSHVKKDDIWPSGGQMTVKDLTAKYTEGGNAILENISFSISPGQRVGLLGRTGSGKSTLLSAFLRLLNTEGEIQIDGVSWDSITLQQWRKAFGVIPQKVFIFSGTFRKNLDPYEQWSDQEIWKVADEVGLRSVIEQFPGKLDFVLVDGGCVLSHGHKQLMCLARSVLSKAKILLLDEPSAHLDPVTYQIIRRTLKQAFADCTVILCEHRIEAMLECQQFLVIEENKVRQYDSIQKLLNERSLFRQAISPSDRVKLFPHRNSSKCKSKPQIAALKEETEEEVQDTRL

For the compound `Cc1cccc(C)c1-c1cc2nc(n1)NS(=O)(=O)c1cccc(c1)C(=O)N(Cc1c(C)nn(C(C)(C)C)c1C)[C@H](CC(C)(C)C)CO2` [Compound 482], where the note is “Table 10, at 10 μM, read-out: HBE activity at 10 (μM) (%)”, the activation at 10 µM was > 60%.

For `Cc1cccc(C)c1-c1cc2nc(n1)NS(=O)(=O)c1cccc(c1)C(=O)N(Cc1ncc(OC(C)C)cn1)C(C(C)C(C)C)CO2` (stereo not shown) [Compound 1466], for the setting “HBE assay, 10 μM, read-out: HBE Activity at 10 μM (%)”, the activation at 10 µM was > 60%.

On to `Cc1cccc(C)c1-c1cc2nc(n1)NS(=O)(=O)c1cccc(c1)C(=O)N(Cc1cncc(N(C)C3CC4(CCC4)C3)n1)[C@H](CC(C)(C)C)CO2` [Compound 441], for which, for the setting “Table 12”, the pEC50 is > 6.00. Further, under setting [1], the Emax was > 60%.

In the case of `Cc1cccc(C)c1-c1cc2nc(n1)NS(=O)(=O)c1cccc(c1)C(=O)N(Cc1cccc(C3=CCC(C)(C)CC3)n1)[C@H](CC(C)(C)C)CO2` [Compound 734], the activation at 10 µM (Table 11, at 10 μM, read-out: HBE Activity at 10 μM (%)) is > 60%.

For the compound `Cc1cccc(C)c1-c1cc2nc(n1)NS(=O)(=O)c1cccc(c1)C(=O)N(Cc1cccnc1N1CCOCC1)[C@H](CC(C)(C)C)CO2` [Compound 374], the pEC50 (Table 10) is > 6.00. The Emax under setting [2] was > 60%.

On to `Cc1cccc(C)c1-c1cc2nc(n1)NS(=O)(=O)c1cccc(c1)C(=O)N(Cc1cncc(N(C)CC(C)(C)C)n1)[C@H](C(C)C)CO2` [Compound 694], for which, where the note is “Table 12”, the pEC50 is > 6.00. Besides, under setting [1], the Emax was > 60%.

As to `Cc1cccc(C)c1-c1cc2nc(n1)NS(=O)(=O)c1cccc(c1)C(=O)N(Cc1cccc(C(C)(C)O)n1)[C@H](CC(C)(C)C)CO2` [Compound 817], under “Table 11”, the pEC50 was > 6.00. Also, the Emax under setting [3] was > 60%.

Turning to `Cc1cccc(C)c1-c1cc2nc(n1)NS(=O)(=O)c1cccc(n1)C(=O)N(Cc1ccc(N(C)CC(C)(C)C)cn1)[C@H](CC(C)(C)C)CO2` [Compound 1125], the pEC50 (Table 13) was 5.52 to 6.00. Further, under setting [4], the Emax is > 60%.

With `Cc1cccc(C)c1-c1cc2nc(n1)NS(=O)(=O)c1cccc(c1)C(=O)N(Cc1ccc(C(=O)N3CCOCC3)cn1)[C@H](CC(C)(C)C)CO2` [Compound 245], under setting [5], the activation at 10 µM was > 600%.

For the compound `Cc1cccc(C)c1-c1cc2nc(n1)NS(=O)(=O)c1cccc(c1)C(=O)N(Cc1nccc(N(C)[C@@H]3CCC34CCC4)n1)[C@H](CC(C)(C)C)CO2` [Compound 451], for the setting “Table 12”, the pEC50 was > 6.00. Under setting [1], the Emax is > 60%.

For the compound `CCN(C)c1cccc(CN2C(=O)c3cccc(c3)S(=O)(=O)Nc3nc(cc(-c4c(C)cccc4C)n3)OC[C@H]2CC(C)(C)C)n1` [Compound 715], the pEC50 (Table 11) was 5.52 to 6.00. Besides, the Emax under setting [3] is > 60%.

On to `Cc1cc(N(C)C)nc(CN2C(=O)c3cccc(c3)S(=O)(=O)Nc3nc(cc(-c4c(C)cccc4C)n3)OC[C@H]2CC(C)(C)C)n1` [Compound 324], for which the activation at 10 µM (Table 12, at 10 μM, read-out: HBE Activity at 10 μM (%)) was > 600%.

For `CCOc1cnc(CN2C(=O)c3cccc(c3)S(=O)(=O)Nc3nc(cc(-c4c(C)cccc4C)n3)OC[C@H]2CC(C)(C)C(F)(F)F)nc1` [Compound 1489], the pEC50 (HBE assay) is > 6.00. In addition, under setting [6], the Emax was > 60%.

`COC(=O)c1ccc(CN2C(=O)c3cccc(c3)S(=O)(=O)Nc3nc(cc(-c4c(C)cccc4C)n3)OC[C@H]2CC(C)(C)C)nc1` [Compound 248]: the activation at 10 µM under setting [5] is > 600%.

Regarding `Cc1cccc(C)c1-c1cc2nc(n1)NS(=O)(=O)c1cccc(c1)C(=O)N(CC1(C(=O)NC3CCCCC3)CC1)[C@H](CC(C)(C)C)CO2` [Compound 1115], the activation at 10 µM under setting [5] was > 600%.

Take `Cc1cccc(C)c1-c1cc2nc(n1)NS(=O)(=O)c1cccc(c1)C(=O)N(Cc1ccc(N3CCCCC3)cn1)[C@H](CC(C)(C)C)CO2` [Compound 502]: the pEC50 (Table 10) was > 6.00. Moreover, the Emax under setting [2] was > 60%.

For `Cc1cccc(C)c1-c1cc2nc(n1)NS(=O)(=O)c1cccc(c1)C(=O)N(Cc1ncc(N3CCC4(CCC4)C3)cn1)[C@H](CC(C)(C)C)CO2` [Compound 612], the negative-log EC50 (pEC50) (Table 11) was > 6.00. Besides, the Emax under setting [3] was > 60%.

As for `Cc1cccc(C)c1-c1cc2nc(n1)NS(=O)(=O)c1cccc(c1)C(=O)N(Cc1nccc3ccccc13)[C@H](CC(C)(C)C)CO2` [Compound 767], the pEC50 (Table 10) was > 6.00. Further, the Emax under setting [2] is > 60%.

Take `Cc1cccc(C)c1-c1cc2nc(n1)NS(=O)(=O)c1cc(n(C)n1)C(=O)N(Cc1ccc(N3CCOCC3)cc1)[C@H](CC(C)(C)C)CO2` [Compound 906]: the pEC50 (Table 10) is > 6.00. The Emax under setting [2] was > 60%.

Take `Cc1cccc(C)c1-c1cc2nc(n1)NS(=O)(=O)c1cccc(c1)C(=O)N(Cc1ncc(C3CCCC3)cn1)[C@H](CC(C)(C)C)CO2` [Compound 638]: where the note is “Table 11”, the pEC50 is 5.52 to 6.00. In addition, the Emax under setting [3] is > 60%.

As to `Cc1cccc(C)c1-c1cc2nc(n1)NS(=O)(=O)c1cccc(c1)C(=O)N(Cc1ccc(C(=O)N3CCC(C)(C)C3)cn1)[C@H](CC(C)(C)C)CO2` [Compound 246], the activation at 10 µM under setting [5] was > 600%.

Turning to `Cc1cccc(C)c1-c1cc2nc(n1)NS(=O)(=O)c1cccc(c1)C(=O)N(Cc1nc(C(C)C)cs1)[C@H](CC(C)(C)C)CO2` [Compound 704], the pEC50 (Table 12) was > 6.00. For the same compound, the Emax under setting [1] is > 60%.

In the case of `Cc1cccc(C)c1-c1cc2nc(n1)NS(=O)(=O)c1cccc(c1)C(=O)N(Cc1cccc(N(C)CC(C)(C)C)n1)[C@H](CC(C)(C)C)CO2` [Compound 133, (11R)-6-(2,6-Dimethylphenyl)-11-(2,2-dimethylpropyl)-12-[[6-[2,2-dimethylpropyl(methyl)amino]-2-pyridyl]methyl]-2,2-dioxo-9-oxa-2λ^6-thia-3,5,12,19-tetrazatricyclo[12.3.1.14,8]nonadeca-1(18),4(19),5,7,14,16-hexaen-13-one], the pEC50 (Table 11) is > 6.00. Under setting [3], the Emax was > 60%.

As to `CCN(CC)c1cccc(CN2C(=O)c3cccc(c3)S(=O)(=O)Nc3nc(cc(-c4c(C)cccc4C)n3)OC[C@H]2CC(C)(C)C)n1` [Compound 711], the pEC50 (Table 11) was 5.52 to 6.00. The Emax under setting [3] was > 60%.

Consider `Cc1cccc(C)c1-c1cc2nc(n1)NS(=O)(=O)c1cccc(c1)C(=O)N(CC(=O)N(C)C1CCC(C)(C)CC1)[C@H](CC(C)(C)C)CO2` [Compound 172], for which the activation at 10 µM under setting [5] is > 600%.

For `Cc1cccc(C)c1-c1cc2nc(n1)NS(=O)(=O)c1cccc(c1)C(=O)N(CC1CC3(C1)CC(N(C)C)C3)[C@H](CC(C)(C)C)CO2` (stereo partly shown) [Compound 1000], the activation at 10 µM under setting [5] is > 600%.

On to `CC[C@H](C)Oc1cnc(CN2C(=O)c3cccc(c3)S(=O)(=O)Nc3nc(cc(-c4c(C)cccc4C)n3)OC[C@H]2CC2CC2)nc1` [Compound 1453], for which the pEC50 (HBE assay) is 5.52 to 6.00. The Emax under setting [6] was > 60%.

In the case of `Cc1cccc(C)c1-c1cc2nc(n1)NS(=O)(=O)c1cccc(c1)C(=O)N(Cc1cncc(N(C)C3CCC34CCC4)n1)[C@H](CC(C)(C)C)CO2` (stereo partly shown) [Compound 437], for the setting “Table 12”, the pEC50 is > 6.00. Besides, under setting [1], the Emax is > 60%.

Turning to `Cc1cccc(C)c1-c1cc2nc(n1)NS(=O)(=O)c1cccc(c1)C(=O)N(Cc1ncc(C3CCN(C)CC3)cn1)[C@H](CC(C)(C)C)CO2` [Compound 631], where the note is “Table 11”, the pEC50 is > 6.00. Besides, the Emax under setting [3] is > 60%.

Take `Cc1cccc(C)c1-c1cc2nc(n1)NS(=O)(=O)c1cccc(c1)C(=O)N(Cc1cnn(C(C)(C)C)c1)[C@H](CC(C)(C)C)CO2` [Compound 481]: the Emax under setting [2] is > 60%.

In the case of `Cc1cccc(C)c1-c1cc2nc(n1)NS(=O)(=O)c1cccc(c1)C(=O)N(Cc1ccc(N3CC4(CCOCC4)C3)cn1)[C@H](CC(C)(C)C)CO2` [Compound 1060], the pEC50 (Table 13) was > 6.00. Besides, the Emax under setting [4] is > 60%.

For the compound `Cc1cccc(C)c1-c1cc2nc(n1)NS(=O)(=O)c1cccc(c1)C(=O)N(Cc1ccc(OCC(N)=O)cc1)[C@H](CC(C)(C)C)CO2` [Compound 780], for the setting “Table 10”, the negative-log EC50 (pEC50) is > 6.00. In addition, the Emax under setting [2] was > 60%.

For the compound `Cc1cccc(C)c1-c1cc2nc(n1)NS(=O)(=O)c1cccc(c1)C(=O)N(Cc1nccc(N(C)C(C)C)n1)[C@H](CC(C)(C)C)CO2` [Compound 123, (11R)-6-(2,6-Dimethylphenyl)-11-(2,2-dimethylpropyl)-12-[[4-[isopropyl(methyl)amino]pyrimidin-2-yl]methyl]-2,2-dioxo-9-oxa-2λ^6-thia-3,5,12,19-tetrazatricyclo[12.3.1.14,8]nonadeca-1(18),4(19),5,7,14,16-hexaen-13-one], the pEC50 (Table 11) was > 6.00. For the same compound, under setting [3], the Emax is > 60%.

As for `Cc1cccc(C)c1-c1cc2nc(n1)NS(=O)(=O)c1cccc(c1)C(=O)N(Cc1ncc(N3CC[C@H]3C)cn1)[C@H](CC(C)(C)C)CO2` (stereo in doubt) [Compound 1406], the negative-log EC50 (pEC50) (HBE assay) is > 6.00.

On to `Cc1cccc(C)c1-c1cc2nc(n1)NS(=O)(=O)c1cccc(c1)C(=O)N(Cc1ncc(N3CCC(F)(F)C3)cn1)[C@H](CC1CCC1)CO2` [Compound 1479], for which the pEC50 (HBE assay) is > 6.00. Further, the Emax under setting [6] is > 60%.

Consider `Cc1cccc(C)c1-c1cc2nc(n1)NS(=O)(=O)c1cccc(c1)C(=O)N(CC(=O)N1Cc3ccccc3C1)[C@H](CC(C)(C)C)CO2` [Compound 168], for which the activation at 10 µM under setting [5] is > 600%.

As to `Cc1cccc(C)c1-c1cc2nc(n1)NS(=O)(=O)c1cccc(c1)C(=O)N(Cc1ncc(C3CCCCC3)cn1)[C@H](CC(C)(C)C)CO2` [Compound 644], the negative logarithm of the EC50 (pEC50) (Table 11) was 5.52 to 6.00. Moreover, the Emax under setting [3] is > 60%.
